Source: article PMC11589570, “Critical assessment of LC3/GABARAP ligands used for degrader development and ligandability of LC3/GABARAP binding pockets” (Nature Communications, 2024)
Entries after “also recorded” stand apart in the source; their conditions may differ. Where two headings read alike, the source gives them in different places.

Molecular target: GABARAPL2 (Homo sapiens, UniProt P60520)
Conditions: for CSP: GABARAPL2:ligand molar ratio 1:2; for 3D Mapping code: molar ratio 1:2

Sequence of GABARAPL2 (P60520 whole entry): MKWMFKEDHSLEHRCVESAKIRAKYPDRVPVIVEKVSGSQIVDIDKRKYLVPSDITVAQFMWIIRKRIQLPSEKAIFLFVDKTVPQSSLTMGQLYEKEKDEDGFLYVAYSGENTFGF

`O=C1Nc2ccc(I)cc2C1=Cc1cc(Br)c(O)c(Br)c1` [compound 4] was tested, and the “interaction in 2D NMR titration” value (GABARAPL2, listed as 10O5) was “only 10O5 (4) was able to interact with GABARAPL2; also recorded: prominent CSP”, the “CSP induced, K48 HN resonance” value (Molar ratio 10O5:GABARAPL2 0.5) was 0.08111 and the “CSP induced, L50 HN resonance” value (Molar ratio 10O5:GABARAPL2 0.5) was 0.0416. For the same compound, the “CSP induced, R28 HN resonance” value (Molar ratio 10O5:GABARAPL2 0.5) was 0.0281, the “CSP induced, V16 HN resonance” value (Molar ratio 10O5:GABARAPL2 0.5) was 0.00761 and the “CSP induced, V31 HN resonance” value (Molar ratio 10O5:GABARAPL2 0.5) was 0.04746. For the same compound, the “CSP induced, Y109 HN resonance” value (Molar ratio 10O5:GABARAPL2 0.5) was 0.01545, the “CSP induced, K48 HN resonance” value (Molar ratio 10O5:GABARAPL2 1) was 0.1338 and the “CSP induced, L50 HN resonance” value (Molar ratio 10O5:GABARAPL2 1) was 0.06831. For the same compound, the “CSP induced, R28 HN resonance” value (Molar ratio 10O5:GABARAPL2 1) was 0.04204, the “CSP induced, V16 HN resonance” value (Molar ratio 10O5:GABARAPL2 1) was 0.03636 and the “CSP induced, V31 HN resonance” value (Molar ratio 10O5:GABARAPL2 1) was 0.08123. For the same compound, the “CSP induced, Y109 HN resonance” value (Molar ratio 10O5:GABARAPL2 1) was 0.03416, the “CSP induced, K48 HN resonance” value (Molar ratio 10O5:GABARAPL2 2) was 0.1662 and the “CSP induced, L50 HN resonance” value (Molar ratio 10O5:GABARAPL2 2) was 0.09155. For the same compound, the “CSP induced, R28 HN resonance” value (Molar ratio 10O5:GABARAPL2 2) was 0.06538, the “CSP induced, V16 HN resonance” value (Molar ratio 10O5:GABARAPL2 2) was 0.05012 and the “CSP induced, V31 HN resonance” value (Molar ratio 10O5:GABARAPL2 2) was 0.1265. The “CSP induced, Y109 HN resonance” value (Molar ratio 10O5:GABARAPL2 2) was 0.04477, the “CSP induced, K48 HN resonance” value (Molar ratio 10O5:GABARAPL2 4) was 0.2294 and the “CSP induced, L50 HN resonance” value (Molar ratio 10O5:GABARAPL2 4) was 0.1327. For the same compound, the “CSP induced, R28 HN resonance” value (Molar ratio 10O5:GABARAPL2 4) was 0.07911, the “CSP induced, V16 HN resonance” value (Molar ratio 10O5:GABARAPL2 4) was 0.07334 and the “CSP induced, V31 HN resonance” value (Molar ratio 10O5:GABARAPL2 4) was 0.1464. For the same compound, the “CSP induced, Y109 HN resonance” value (Molar ratio 10O5:GABARAPL2 4) was 0.06741, the CSP (residue A19) was 0.086 ppm and the “3D Mapping code” value (residue A19) was “Orange”. The CSP (residue A23) was 0.058 ppm, the “3D Mapping code” value (residue A23) was “Orange” and the CSP (residue A58) was 0.016 ppm. The CSP (residue A75) was 0.00255 ppm, the CSP (residue A108) was 0.017 ppm and the CSP (residue C15) was 0.019 ppm. For the same compound, the CSP (residue D8) was 0.007 ppm, the CSP (residue D27) was 0.029 ppm and the “3D Mapping code” value (residue D27) was “Light green”. The CSP (residue D43) was 0.009 ppm, the CSP (residue D45) was 0.030 ppm and the “3D Mapping code” value (residue D45) was “Light green”. For the same compound, the CSP (residue D54) was 0.029 ppm, the “3D Mapping code” value (residue D54) was “Light green” and the CSP (residue D81) was 0.022 ppm. The CSP (residue D100) was 0.018 ppm, the CSP (residue D102) was 0.033 ppm and the “3D Mapping code” value (residue D102) was “Light green”. The CSP (residue E7) was 0.029 ppm, the “3D Mapping code” value (residue E7) was “Light green” and the CSP (residue E12) was 0.015 ppm. The CSP (residue E17) was 0.081 ppm, the “3D Mapping code” value (residue E17) was “Orange” and the CSP (residue E34) was 0.060 ppm. For the same compound, the “3D Mapping code” value (residue E34) was “Orange”, the CSP (residue E73) was 0.00458 ppm and the CSP (residue E96) was 0.019 ppm. The CSP (residue E98) was 0.025 ppm, the CSP (residue E101) was 0.007 ppm and the CSP (residue E112) was 0.00563 ppm. The CSP (residue F60) was 0.00542 ppm, the CSP (residue F77) was 0.006 ppm and the CSP (residue F79) was 0.007 ppm. The CSP (residue F104) was 0.059 ppm, the “3D Mapping code” value (residue F104) was “Orange” and the CSP (residue F115) was 0.012 ppm. For the same compound, the CSP (residue G38) was 0.040 ppm, the “3D Mapping code” value (residue G38) was “Light green” and the CSP (residue G103) was 0.019 ppm. It also gave a CSP (residue G111) of 0.010 ppm, a CSP (residue G116) of 0.007 ppm and a CSP (residue H9) of 0.008 ppm. For the same compound, the CSP (residue H13) was 0.031 ppm, the “3D Mapping code” value (residue H13) was “Light green” and the CSP (residue I21) was 0.054 ppm. For the same compound, the “3D Mapping code” value (residue I21) was “Orange”, the CSP (residue I32) was 0.057 ppm and the “3D Mapping code” value (residue I32) was “Blue”. For the same compound, the CSP (residue I41) was 0.00428 ppm, the CSP (residue I44) was 0.029 ppm and the “3D Mapping code” value (residue I44) was “Light green”. For the same compound, the CSP (residue I55) was 0.026 ppm, the “3D Mapping code” value (residue I55) was “Light green” and the CSP (residue I63) was 0.014 ppm. For the same compound, the CSP (residue I64) was 0.021 ppm, the CSP (residue I68) was 0.021 ppm and the CSP (residue I76) was 0.004 ppm. The CSP (residue K2) was 0.017 ppm, the CSP (residue K6) was 0.023 ppm and the CSP (residue K20) was 0.058 ppm. The “3D Mapping code” value (residue K20) was “Orange”, the CSP (residue K24) was 0.015 ppm and the CSP (residue K35) was 0.014 ppm. The CSP (residue K46, estimated) was 0.050 ppm, the “3D Mapping code” value (residue K46) was “Blue” and the CSP (residue K48) was 0.168 ppm. For the same compound, the “3D Mapping code” value (residue K48) was “Blue”, the CSP (residue K66) was 0.020 ppm and the CSP (residue K74) was 0.011 ppm. For the same compound, the CSP (residue K97) was 0.012 ppm, the CSP (residue K99) was 0.018 ppm and the CSP (residue L11) was 0.016 ppm. The CSP (residue L50) was 0.096 ppm and the “3D Mapping code” value (residue L50) was “Blue”.
